Results reported in patent US11752162B2, “Compounds and compositions for treating solid tumors by intratumoral administration” (Novartis AG, priority 2017, dated 2023).

Assays:
[1] = Extent of Compound 15 binding to Alhydrogel (% bound) in the suspension; format: physicochemical; conditions: for % bound (Compound 15 adsorbed to aluminum hydroxide): 100 mM Tris buffer (pH 7.4)
Description: In the preparation of the Compound 15/Alhydrogel® suspension used in the Examples herein, the stock suspension of Alhydrogel® was filtered by gravity filtration through a 100 μm cell strainer before mixing with stock solution comprising Compound 15. The resulting mixture/suspension was stirred for 5 minutes to allow Compound 15 to adsorb/bind to the aluminum of Alhydrogel®.
To determine the extent of Compound 15 binding to Alhydrogel® (i.e. % bound) in the Compound 15/Alhydrogel® suspension used in the Examples herein, aliquots of the suspension were centrifuged to pellet the bound Compound 15/Alhydrogel® (e.g. 21,000×g for 10 min), and the amount of free Compound 15 in the supernatant was analyzed by HPLC/UV or LC/MS/MS.

[2] = Binding efficiency of Compound 15 to aluminum-containing particles (Alhydrogel) in Tris buffer; format: physicochemical
in vivo = conditions: male, Wistar, rat, iv, 1 mg/kg
Description: Note: The pharmacokinetic properties of Compound 15 in 50 mM Tris/0.9% NaCl (pH 7.4) were examined in male Wistar rats following a single 1 mg/kg intravenous bolus administration.

MC38 tumors = test: Contralateral MC38 colon cancer model, alone or with checkpoint inhibitors; format: in vivo, mouse; conditions: Compound 15 alone, without aluminum hydroxide, 50 μg i.t.
Description: MC38 cells were grown in sterile conditions in a 37° C. incubator with 5% CO2 for two weeks. The cells were cultured in Dulbecco's Modified Eagle's medium (DMEM) media supplemented with 10% FBS, cells were passed every 2-3 days. On the day of injection, cells were harvested (Passage 12) and re-suspended in Hanks' Balanced Salt Solution (HBSS) at a concentration of 2.5×10^6/ml. Cells were Radil tested for mycoplasma and murine viruses.
For each mouse, 0.25×10^6 cells were implanted with subcutaneously injection into right flank using a 28½ g needle ([…]). After the first implantation on day 3 (0.25×10^6) cells are implanted with a subcutaneous injection into left flank using a 28½ g needle (100 μL injection volume). Tumor sizes were assessed three times a week once tumors were palpable. Tumor sizes were determined by using caliper measurements, with tumor volumes calculated using the formula: (Length×Width×Width)/2.
Female C57BL/6 mice bearing the MC38 tumors were randomized into 7 groups (n=9 mice per group) 9 days post tumor cell implantation with an average tumor volume range of 69.09-142.25 mm^3, and the separate groups of tumor bearing mice received treatment as shown in Table 17.
The anti-tumor efficacy of Compound 15 adsorbed to aluminum hydroxide (Alhydrogel®) alone or in combination with checkpoint inhibitors, was determined using a contralateral MC38 colon cancer model. The tumor volume was obtained after two weekly intratumoral injections of Compound 15 adsorbed to aluminum hydroxide (50 μg each) either alone (Group 2), in a double combination with intraperitoneal injection (twice weekly) of an anti-PD-L1 antibody (10 mg/kg) (Group 5), in a double combination with intraperitoneal injection (twice weekly) of an anti-CTLA4 antibody (10 mg/kg) (Group 6), or in a triple combination with intraperitoneal injection (twice weekly) of an anti-PD-L1 antibody (10 mg/kg) and with intraperitoneal injection of an anti-CTLA4 antibody (10 mg/kg) (group 7). For comparison, data was obtained after an intraperitoneal injection (twice weekly) of the anti-PD-L1 antibody (10 mg/kg) alone (Group 3) and after an intraperitoneal injection (twice weekly) of the anti-CTLA4 antibody (10 mg/kg) alone (Group 4). The untreated control data was also obtained (Group 1).
The anti-tumor efficacy of Compound 15 alone (without aluminum hydroxide (Alhydrogel®)) or in combination with checkpoint inhibitors was determined using a contralateral MC38 colon cancer model. […] In addition, the anti-tumor efficacy of Compound 15 adsorbed to aluminum hydroxide (Alhydrogel®) alone or in a triple combination with checkpoint inhibitors was determined using a contralateral MC38 colon cancer model. […]

IP-10 = test: Plasma IP-10 profiles in Wistar rats after s.c. injection; format: in vivo, rat; conditions: male Wistar rats
[3] = Mouse plasma PK, MC38 syngeneic tumor model, one week study; format: in vivo; conditions: female, C57BL/6, mouse, 100 ug, 100 μg Compound 15, single i.t. injection, MC38 tumor bearing mice
Description: A MC38 syngeneic mouse tumor model was used to investigate the systemic exposure of Compound 15 following: • a) a single intra-tumoral (i.t.) injection of 100 μg (˜4 mg/kg) of free form Compound 15 in 20 mM Tris buffer pH 7.4, • b) a single intra-tumoral (i.t.) injection of Compound 15 adsorbed to Alhydrogel® suspension at a 1:1.5 ratio (w/w) of Compound 15 to Alhydrogel®)-Suspension A described below and • c) a single subcutaneous (s.c.) injection of Compound 15 adsorbed to Alhydrogel® suspension at a 1:1.5 ratio (w/w) of Compound 15 to Alhydrogel®-Suspension A described below.
For each mouse, 0.25×10^6 cells were implanted with subcutaneously injection into right flank using a 28½ g needle (1004 injection volume). Female C57BL/6 mice bearing the MC38 tumors were randomized into separate groups (n=3-24 mice per group) 10 days post tumor cell implantation with an average tumor volume range of 95.05-194.36 mm^3.
Approximately 10 days after MC38 tumor implant, tumor bearing mice received a single dose of vehicle, 100 μg of free Compound 15 solution (2 mg/mL) or Compound 15 adsorbed to Alhydrogel (1:1.5 w/w; 97% bound) by direct intra-tumoral (i.t.) injection or subcutaneous (s.c.) injection. The dose volume was 50 μL per animal. Plasma samples were taken up to 7 days post dose at time points indicated in Table 11 (n=3 animal per time point).
Plasma concentrations of Compound 15 were quantified using a Liquid Chromatography/Mass Spectrometry (LC/MS/MS) assay. […] To 20 μL of each plasma sample or appropriately diluted plasma sample, 25 μL of internal standard solution was added, then mixed with 150 μL of extraction solvent (methanol/acetonitrile, 80/20 by volume) to precipitate plasma proteins. The samples were vortexed for 5 minutes then centrifuged with an Eppendorf Centrifuge 5810R (Eppendorf, Hamburg, Germany) at a setting of 4,000 rpm for 10 minutes at 4° C. Aliquot of supernatant (50 μL) was transferred to a clean 96-well plate and mixed with 100 μL of Milli-Q water. The mixed samples were injected (25 μL) onto a Waters XBridge C4 analytical column (2.1×50 mm, 3.5 μm), and mobile phases consisted of 0.1% formic acid in water (solvent A) and 0.1% formic acid in acetonitrile (solvent B). […]
The HPLC system, consisting of Agilent 1200 series binary pump (Agilent Technologies Inc.), Agilent 1200 series micro vacuum degasser (Agilent Technologies Inc.), CTC PAL-HTC autosampler (LEAP Technologies, Carborro, N.C., USA) was interfaced to a AB Sciex API 4000 QTrap mass spectrometer (AB Sciex LLC., Framingham, Mass., USA). […] The lower limit of quantitation (LLOQ) in plasma was 0.25 ng/mL. […]

[4] = Compound 15 0.25 mg/mL, aluminum 0.625 mg/mL, ratio 2.5:1
[5] = Compound 15 0.25 mg/mL, aluminum 5 mg/mL, ratio 20:1
[6] = Compound 15 1 mg/mL, aluminum 2.5 mg/mL, ratio 2.5:1
[7] = Compound 15 2 mg/mL, aluminum 0.1 mg/mL, ratio 0.05:1, 20 mM Tris pH 7.4
[8] = Compound 15 2 mg/mL, aluminum 2 mg/mL, ratio 1:1, 20 mM Tris pH 7.4
[9] = Compound 15 2 mg/mL, aluminum 3 mg/mL, ratio 1.5:1, 20 mM Tris pH 7.4
[10] = Compound 15 3 mg/mL, aluminum 5 mg/mL, ratio 1.7:1
[11] = Compound 15 3 mg/mL, aluminum 7.5 mg/mL, ratio 2.5:1

Cc1cc(OCCOCCC(F)(F)P(=O)(O)O)ccc1CCc1cnc2c(N)nc3cc(CCC(=O)O)ccc3c2c1 [Compound 15, 3-(5-amino-2-(4-(2-(3,3-difluoro-3-phosphonopropoxy)ethoxy)-2-methylphenethyl)benzo[f][1,7]naphthyridin-8-yl)propanoic acid]
% bound (Compound 15 adsorbed to aluminum hydroxide) ([1]; 50 μg dose formulation, 1:2.5 w/w ratio): 91%
% bound (Compound 15 adsorbed to aluminum hydroxide) ([1]; 200 μg dose formulation, 1:2.5 w/w ratio): 94%
% bound (Compound 15 adsorbed to aluminum hydroxide) ([1]; 600 μg dose formulation, 1:2.5 w/w ratio): 97%
% bound (Compound 15 adsorbed to aluminum hydroxide) ([1]; 50 kg/50 μg (so in the source) dose formulation, 1:20 w/w ratio): 98%
% bound (Compound 15 adsorbed to aluminum hydroxide) ([1]; 600 kg (so in the source) dose formulation, 1:1.7 w/w ratio): 98%
% bound (Compound 15/aluminum hydroxide) ([1]; fixed ratio of 1:1.5 w/w, A20 study formulation): 97%
Compound 15 % Bound [2, 4]: 90.7%
Compound 15 % Free [2, 4]: 9.3%
Compound 15 % Bound [2, 5]: 97.6%
Compound 15 % Free [2, 5]: 1.4%
Compound 15 % Bound [2, 6]: 93.5%
Compound 15 % Free [2, 6]: 6.5%
Compound 15 % Bound [2, 7]: 9.6%
Compound 15 % Free [2, 7]: 90.4%
Compound 15 % Free ([2]; Compound 15 2 mg/mL, aluminum 0.5 mg/mL, ratio 0.25:1, 20 mM Tris pH 7.4): 74.3%
Compound 15 % Bound ([2]; Compound 15 2 mg/mL, aluminum 1 mg/mL, ratio 0.5:1, 20 mM Tris pH 7.4): 43.5%
Compound 15 % Bound [2, 8]: 80.8%
Compound 15 % Free [2, 8]: 19.2%
Compound 15 % Bound [2, 9]: 97.6%
Compound 15 % Free [2, 9]: 2.4%
Compound 15 % Bound [2, 10]: 99.6%
Compound 15 % Free [2, 10]: 0.4%
Compound 15 % Bound [2, 11]: 97.1%
Compound 15 % Free [2, 11]: 2.9%
Compound 15 % Bound ([2]; aluminum hydroxide:Compound 15 ratio (w/w) 1.5:1, Tris buffer pH 7): 98.5%
Compound 15 % Bound ([2]; aluminum hydroxide:Compound 15 ratio (w/w) 1.5:1, Tris buffer pH 7.5): 85.9%
Compound 15 % Bound ([2]; aluminum hydroxide:Compound 15 ratio (w/w) 2:1, Tris buffer pH 7): 99.3%
Compound 15 % Bound ([2]; aluminum hydroxide:Compound 15 ratio (w/w) 2:1, Tris buffer pH 8): 99.1%
% Free Compound 15 ([2]; dosing formulation of Example 9, 100 mM Tris pH 7.4): 100%
% Free Compound 15 ([2]; dosing formulation of Example 10, 100 mM Tris pH 7.4): 100%
MRT (in vivo): 12 min
half-life (in vivo): 72 min
clearance (in vivo; pH 7.4): 9.2 mL/min/kg
difference from the no treatment group, contralateral tumor site (MC38 tumors): did not show a difference from the no treatment group
difference from the no treatment group, primary injection site (MC38 tumors): did not show a difference from the no treatment group
peak plasma IP-10 levels compared with 600 μg Compound 15/aluminum hydroxide (IP-10; 600 μg s.c.): higher peak IP-10 levels with a fast rate of decline
time of maximum plasma IP-10 levels post s.c. injection (IP-10; 50 and 600 μg adsorbed, 600 μg free Compound 15): around 3 h
AUC(0-inf) [3]: 6220 ng·h/mL
Cmax [3]: 10600 ng/mL
Tmax [3]: 4.98 min
half-life ([3]; other: intra-tumoral (i.t.) injection): 159 min
